Three molecules from patent US10144730B2, “Inhibitors of c-Jun-N-terminal kinase (JNK)” (Dana-Farber Cancer Institute, Inc., priority 2011, dated 2018) can be followed below.

The IC50 is the concentration at which inhibition is half-maximal.

The structures appear in SMILES notation.

Assay [1] relates to c-Jun phosphorylation. In words: High throughput microscopy of c-Jun phosphorylation in A375 cells. Type of assay: cell-based. The following applies: Homo sapiens, A-375; for IC50: rounded values of the text, read-out: IC50 for inhibiting c-Jun phosphorylation in A375 cells. How it is done:
(§1) Cells were fixed in 2% paraformaldehyde for 10 min at room temperature and washed with PBS-T (Phosphate Buffered Saline, 0.1% Tween 20). Cells were permeabilized in methanol for 10 min at room temperature, washed with PBS-T, and blocked in Odyssey Blocking Buffer (LI-COR Biosciences) for 1 hour at room temperature. Cells were incubated overnight at 4° C. with antibody specific for Erk1/2(pT202/pY204), Akt(pS473), c-Jun(pS73), pP38(T180/Y182) and pSTAT3(Y705) (Cell Signaling Technology), pRSK1(S380) and pMSK1(S376) (Epitomics), and NF-κB (Santa Cruz Biotechnology) diluted 1:400 in Odyssey Blocking Buffer. […] Cells were washed twice with PBS and imaged in an imageWoRx high-throughput microscope (Applied Precision). Data were plotted using DataPflex.
(§2) In parallel with biochemical evaluation, the ability of the compounds to inhibit JNK activity in cells was investigated using two independent assays formats. This is a critical issue because there are several reported JNK inhibitors with nanomolar biochemical potency that translate into micromolar cellular inhibitors. The most well characterized direct phosphorylation substrate of JNK is the transcription factor c-Jun.

A further assay concerns the target JNK2 (Homo sapiens, UniProt P45984). Put plainly: Biochemical JNK2 kinase inhibition (Z'-lyte format). The following applies: Table 2.
For a further assay, the system named is JNK. Put plainly: Binding kinetics (pulse-chase) assay, ATP-biotin labeling of JNK in A375 cells. Type of assay: cell-based. The following applies: 1 μM compound. On the procedure:
A375 cells were incubated with inhibitors for the indicated amount of time after which cell lysates were prepared and labeled with ATP-biotin. Biotinylated proteins were pulled down with streptavidin beads and material bound to the beads was eluted and separate by SDS-PAGE followed by Western blot analysis for JNK.
A375 cells (ATCC® CRL-1619™) were pre-treated with 1 μM compound for the indicated amounts of time. Remove the medium and wash 3 times with PBS. Resuspend the cell pellet with 1 mL Lysis Buffer (1% NP-40, 1% CHAPS, 25 mM Tris, 150 mM NaCl, Phosphatase Inhibitor Cocktail, Roche 04906845001, and Protease Inhibitor Cocktail Roche 11836170001). Rotate end-to-end for 30 min at 4° C. Lysates were cleared by centrifugation at 14000 rpm for 15 min in the Eppendorf. The cleared lysates gel filtered into Kinase Buffer (0.1% NP-40, 20 mM HEPES, 150 mM NaCl, Phosphatase Inhibitor Cocktail, and Protease Inhibitor Cocktail) using Bio-Rad 10DG colums. The total protein concentration of the gel-filtered lysate should be around 5-15 mg/ml. […]
In order to evaluate the kinetics with which JNK-IN-5 could covalently modify JNK in cells, a pulse-chase assay was developed . […] Streptavidin affinity chromatography is then used to isolate all biotinylated proteins and JNK protein is detected following SDS-PAGE and Western blotting (FIG. 8). […]

Another assay concerns the target JNK3 (Homo sapiens, UniProt P53779). Put plainly: Biochemical JNK3 kinase inhibition (Z'-lyte format). The following applies: Table 2.
The target in the next assay is JNK1 (Homo sapiens, UniProt P45983). Put plainly: Biochemical JNK1 kinase inhibition (Z'-lyte format). The following applies: Table 2.
Chain of JNK1 (P45983 whole entry): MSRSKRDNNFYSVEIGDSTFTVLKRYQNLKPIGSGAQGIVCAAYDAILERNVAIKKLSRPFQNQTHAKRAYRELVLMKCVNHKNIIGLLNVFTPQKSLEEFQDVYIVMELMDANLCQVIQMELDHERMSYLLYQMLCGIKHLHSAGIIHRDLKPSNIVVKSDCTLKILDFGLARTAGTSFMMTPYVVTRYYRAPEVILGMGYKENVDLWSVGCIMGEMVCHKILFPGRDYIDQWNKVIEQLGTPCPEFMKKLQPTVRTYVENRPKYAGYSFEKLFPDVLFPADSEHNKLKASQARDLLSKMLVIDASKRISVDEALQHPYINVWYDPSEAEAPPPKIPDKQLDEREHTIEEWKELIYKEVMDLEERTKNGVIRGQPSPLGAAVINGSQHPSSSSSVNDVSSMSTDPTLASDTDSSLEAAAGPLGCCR
For assay [2], the system named is c-Jun phosphorylation. In words: LanthaScreen TR-FRET cell assay for c-Jun phosphorylation in HeLa cells. Type of assay: cell-based. The following applies: Homo sapiens; for IC50: HeLa cells, rounded values of the text, read-out: IC50 for inhibiting c-Jun phosphorylation in HeLa cells; for EC50: Hela cells, TNF-α stimulation, read-out: p-c-Jun EC50 (nM) Hela. On the procedure: Phosphorylation was determined by measuring the time resolved FRET (TR-FRET) between a terbium labeled phospho-c-Jun specific antibody and GFP. The cells were plated in white tissue culture treated 384 well plates at a density of 10,000 cell per well in 32 μL assay medium (Opti-MEM®, supplemented with 0.5% charcoal/dextran-treated FBS, 100 U/ml penicillin and 100 μg/ml streptomycin, 0.1 mM nonessential amino acids, 1 mM sodium pyruvate, 25 mM Hepes, pH 7.3, and lacking phenol red). After overnight incubation, cells were pretreated for 90 minutes with compound (at indicated concentration) diluted in 4 μL assay buffer followed by 30 min of stimulation with 5 ng/ml of TNF-α in 4 μL assay buffer (final assay volume was 40 μl). The medium was then removed by aspiration, and the cells were lysed by adding 20 μl of lysis buffer (20 mM Tris-HCl, pH 7.6, 5 mM EDTA, 1% Nonidet P-40 substitute, 5 mM NaF, 150 mM NaCl, and 1:100 protease and phosphatase inhibitor mix, SIGMA P8340 and P2850, respectively). The lysis buffer included 2 nM of the terbium-labeled anti-c-Jun (pSer73) detection antibodies (Life Technologies). After allowing the assay to equilibrate for 60 minutes at room temperature, TR-FRET emission ratios were determined on a BMG Pherastar fluorescence plate reader (BMG Labtech, Cary, N.C.) using the following parameters: excitation at 340 nm; emission at 520 nm and 490 nm; 100 μs lag time; 200 μs integration time; and emission ratio=Em520/Em490. All data were analyzed and plotted using Graphpad Prism 4.
as §2
Background: Time-resolved FRET reads energy transfer from a long-lived donor to a nearby acceptor.

A further assay deals with phosphorylation of p38. Put plainly: High-throughput microscopy, phosphorylation of p38. The following applies: Homo sapiens, A-375, A375 cells, anisomycin stimulation, read-out: Cellular EC50 pP38. The format is cell-based. On the procedure:
(§3) A375 cells were stimulated with anisomycin (FIGS. 14A and 14C to 14F), IGF-1 (FIG. 14B), IL-6 (FIG. 14G), and TNF-α (FIG. 14H) for sixty minutes. The output of multiple signaling pathways was measured using high throughput microscopy at multiple concentrations of four JNK inhibitors and a control compound specific to each pathway DMSO (FIG. 14A), MK2206 (allosteric Akt inhibitor, Haoyuan Chemexpress Co., Limited. Hirai, et al., 2010) (FIG. 14B), PD0325901 (allosteric Mek inhibitor, Haoyuan Chemexpress Co., Limited. Barrett, et al., 2008) (FIGS. 14C and 14D), SB239063 (ATP-competitive p38 inhibitor, Haoyuan Chemexpress Co., Limited. Underwood et al., 2000) (FIGS. 14E and 14F), KIN001-040 (ATP-competitive JAK1,2,3 inhibitor, Haoyuan Chemexpress Co., Limited. Thompson et al., 2002) (FIG. 14G), and KIN001-208 (IKK inhibitor VIII, Haoyuan Chemexpress Co., Limited., Murata, et al., 2004) (FIG. 14H).
(§4) Cells were plated at 7500 cells/well in 96-well microscopy plates (Corning) in recommended media for 24 hours, and then starved in media lacking serum for 16 hours. Cells were pre-treated for 180 minutes with 10-fold stock solutions of JNK inhibitors and for 10 min with control compounds MK2206, PD0325901, SB239063, KIN040, and KIN208 and treated with 10-fold stock solutions of IGF-1, IL-6, TNF-α (all PeproTech), or anisomycin for 60 minutes. Cells were fixed in 2% paraformaldehyde for 10 min at room temperature and washed with PBS-T (Phosphate Buffered Saline, 0.1% Tween 20). Cells were permeabilized in methanol for 10 min at room temperature, washed with PBS-T, and blocked in Odyssey Blocking Buffer (LI-COR Biosciences) for 1 hour at room temperature. Cells were incubated overnight at 4° C. with antibody specific for Erk1/2(pT202/pY204), Akt(pS473), c-Jun(pS73), pP38(T180/Y182) and pSTAT3(Y705) (Cell Signaling Technology), pRSK1(S380) and pMSK1(S376) (Epitomics), and NF-κB (Santa Cruz Biotechnology) diluted 1:400 in Odyssey Blocking Buffer. Cells were washed three times in PBS-T and incubated with rabbit-specific secondary antibody labeled with Alexa Fluor 647 (Invitrogen) diluted 1:2000 in Odyssey Blocking Buffer. Cells were washed once in PBS-T and once in PBS and incubated in 250 ng/ml Hoechst 33342 (Invitrogen) and 1:1000 Whole Cell Stain (blue; Thermo Scientific) solution. Cells were washed twice with PBS and imaged in an imageWoRx high-throughput microscope (Applied Precision). Data were plotted using DataPflex. […]

The subject of a further assay is phosphorylation of Erk. In words: High-throughput microscopy, phosphorylation of Erk. Type of assay: cell-based. The following applies: Homo sapiens, A-375, A375 cells, anisomycin stimulation, read-out: Cellular EC50 pErk. On the procedure:
as §3, §4

Assay [3] has as its system panel of 442 distinct kinases. Put plainly: KINOMEscan kinase-binding panel. The following applies: concentration of 1.0 μM.
The next assay deals with phosphorylation of STAT3. Put plainly: High-throughput microscopy, phosphorylation of STAT3. The format is cell-based. The following applies: Homo sapiens, A-375, A375 cells, IL-6 stimulation, read-out: Cellular EC50 pSTAT3. On the procedure: as §3, §4
The target in assay [4] is additional kinase targets. In words: Follow-up enzymatic IC50 or Kd on potential additional kinase targets. The following applies: FIG. 12. An excerpt:
Scores were obtained from the profiling against a […] using Kinome Scan™ technology as illustrated in FIG. 11.
To complement the KiNativ profiling, the in vitro kinase selectivity of several key compounds was comprehensively evaluated by two complementary approaches: a kinase-binding assays against a panel of 442 distinct kinases using the KINOMEscan methodology (DiscoverX) and a standard radioactivity-based enzymatic assays against a panel of 124 kinases (The National Centre for Protein Kinase Profiling in Dundee). […] It was attempted to confirm all these potent binding targets using either an enzymatic kinase assay or through the measurement of a dissociation constant to the kinase in question.

Another assay concerns phosphorylation of RSK. In words: High-throughput microscopy, phosphorylation of RSK. Type of assay: cell-based. The following applies: Homo sapiens, A-375, A375 cells, anisomycin stimulation, read-out: Cellular EC50 pRSK. How it is done: as §3, §4
The subject of assay [5] is NF-kB nuclear translocation. Put plainly: High-throughput microscopy, NF-kB nuclear translocation. The format is cell-based. The following applies: Homo sapiens, A-375, A375 cells, TNF-α stimulation, read-out: Cellular EC50 NF-kB. On the procedure:
as §3, §4

The next assay has as its system phosphorylation of Akt. In words: High-throughput microscopy, phosphorylation of Akt. Type of assay: cell-based. The following applies: Homo sapiens, A-375, A375 cells, IGF-1 stimulation, read-out: Cellular EC50 pAkt. How it is done: as §3, §4
For another assay, the system named is phosphorylation of Msk1. Put plainly: High-throughput microscopy, phosphorylation of Msk1. The format is cell-based. The following applies: Homo sapiens, A-375, A375 cells, anisomycin stimulation, read-out: Cellular EC50 pMSK1. On the procedure:
A375 cells were stimulated with anisomycin (FIGS. 14A and 14C to 14F), IGF-1 (FIG. 14B), IL-6 (FIG. 14G), and TNF-α (FIG. 14H) for sixty minutes.
as §1

The mark [6] stands for this setting: A375 cells, anisomycin stimulation, read-out: p-c-Jun EC50 (nM) A375.

Chain of JNK2 (P45984 whole entry): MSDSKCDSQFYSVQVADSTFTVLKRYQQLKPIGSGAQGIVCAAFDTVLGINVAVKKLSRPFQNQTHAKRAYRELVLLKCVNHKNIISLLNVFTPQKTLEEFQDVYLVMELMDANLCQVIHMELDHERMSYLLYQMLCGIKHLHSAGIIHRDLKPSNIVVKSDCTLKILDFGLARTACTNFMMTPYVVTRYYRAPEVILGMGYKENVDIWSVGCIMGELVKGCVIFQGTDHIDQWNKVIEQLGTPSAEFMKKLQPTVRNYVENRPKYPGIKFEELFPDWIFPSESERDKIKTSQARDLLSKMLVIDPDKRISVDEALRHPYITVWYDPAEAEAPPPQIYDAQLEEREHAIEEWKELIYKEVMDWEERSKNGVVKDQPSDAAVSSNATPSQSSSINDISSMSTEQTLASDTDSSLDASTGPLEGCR
Chain of JNK3 (P53779 whole entry): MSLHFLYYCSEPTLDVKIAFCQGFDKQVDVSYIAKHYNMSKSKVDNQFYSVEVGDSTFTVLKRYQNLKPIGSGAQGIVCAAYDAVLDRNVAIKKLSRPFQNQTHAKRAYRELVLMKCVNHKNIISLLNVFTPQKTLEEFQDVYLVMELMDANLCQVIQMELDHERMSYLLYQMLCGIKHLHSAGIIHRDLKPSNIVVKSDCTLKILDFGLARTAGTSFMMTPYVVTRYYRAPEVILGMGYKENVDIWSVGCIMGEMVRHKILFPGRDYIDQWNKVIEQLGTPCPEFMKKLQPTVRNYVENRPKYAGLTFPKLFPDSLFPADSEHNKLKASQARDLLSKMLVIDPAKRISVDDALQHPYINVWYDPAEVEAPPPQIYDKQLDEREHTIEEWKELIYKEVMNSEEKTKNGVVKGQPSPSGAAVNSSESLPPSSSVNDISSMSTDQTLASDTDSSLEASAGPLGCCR

With `C=CC(=O)Nc1cccc(C(=O)Nc2ccc(Nc3nccc(-c4cccnc4)n3)cc2)c1` [JNK-IN-5], the EC50 with c-Jun phosphorylation [1] (setting [6]) stood at 32 nM; in the assay with c-Jun phosphorylation [1] (Table 5, A375, read-out: E50/A375) it was 32 nM; with c-Jun phosphorylation [2], 118 nM. The IC50 in the assay with c-Jun phosphorylation [1] (A375 cells) was around 30 nM; at JNK2 it was 1.93 nM; against JNK3, 0.96 nM; at JNK1, 2.11 nM; with c-Jun phosphorylation [2], around 100 nM. The “incubation time to fully protect JNK from labeling by ATP-biotin” value in the assay with JNK is given as “approximately three”.
Consider `CN(C)C/C=C/C(=O)Nc1cccc(C(=O)Nc2ccc(Nc3nccc(-c4cccnc4)n3)cc2)c1` [JNK-IN-7], for which the EC50 (in the assay with phosphorylation of p38; in the assay with phosphorylation of Erk; in the assay on phosphorylation of STAT3; with phosphorylation of RSK; in assay [5]; with phosphorylation of Akt) was above 10000 nM in each case. Further, the EC50 in the assay on phosphorylation of Msk1 is above 10000 nM; with c-Jun phosphorylation [2], 130 nM. Besides, the “number of kinases with binding inhibition of 95% or more” value in [3] is given as “approximately 14 kinases”. Also, in assay [4], the “Kd or IC50 against eight additional kinases” value is at most 100 nM. This molecule also had an IC50 at JNK1 of 1.54 nM.
As to `CN(C)C/C=C/C(=O)Nc1cccc(C(=O)Nc2ccc(Nc3nccc(-c4c(-c5ccccc5)nn5ccccc45)n3)cc2)c1` [JNK-IN-11], the EC50 in the assay with c-Jun phosphorylation [1] (A375 cells, anisomycin stimulation, high-throughput microscopy, Table 4, read-out: Cellular EC50 pc-Jun) is below 10 nM; in the assay on c-Jun phosphorylation [1] (setting [6]) it was 8.6 nM; in the assay with phosphorylation of p38, 15 nM; in the assay with phosphorylation of Erk it was 19 nM; with phosphorylation of STAT3, above 10000 nM; in the assay on phosphorylation of RSK, 20 nM. The EC50 was above 10000 nM in assay [5], above 10000 nM in the assay on phosphorylation of Akt and 48 nM in the assay on c-Jun phosphorylation [2]. The 50% inhibitory concentration (IC50) in the assay on c-Jun phosphorylation [1] (A375 cells) is around 10 nM; against JNK2, 0.5 nM; against JNK3, 0.5 nM; on JNK1 it was 1.34 nM; in the assay on c-Jun phosphorylation [2], around 30 nM.
